In the supplement of paper PMC8882468:

Assays:
Assay in all cases: CTG-3D luminescence at 96 h relative to day-0 seeding control (ratio to day 0); higher = more growth / less cytotoxicity; PDxO 3D drug screen (set 2), 96 h, CTG-3D normalised to day-0 seeding control.
HCI-016 = system: HCI-016 (organoid from a triple-negative breast cancer xenograft)
HCI-011.E2 = system: HCI-011.E2 (organoid from an ER-positive breast cancer xenograft)
HCI-002 = system: HCI-002 (organoid from a triple-negative breast cancer xenograft)
HCI-005.E2 = system: HCI-005.E2 (organoid from a breast cancer xenograft with a HER2-positive history)
HCI-024 = system: HCI-024 (organoid from a breast cancer xenograft)
HCI-003.E2 = system: HCI-003.E2 (organoid from an ER-positive breast cancer xenograft)

CO[C@H]1C[C@@H]2CC[C@@H](C)[C@@](O)(O2)C(=O)C(=O)N2CCCC[C@H]2C(=O)O[C@H]([C@H](C)C[C@@H]2CC[C@@H](O)[C@H](OC)C2)CC(=O)[C@H](C)/C=C(\C)[C@@H](O)[C@@H](OC)C(=O)[C@H](C)C[C@H](C)/C=C/C=C/C=C/1C [rapamycin]
CTG-3D luminescence at 96 h
Details	12.5 pM	0.00025 µM	0.005 µM	0.1 µM	1 µM	10 µM	100 µM	625 fM
HCI-002, days in culture: 127	1.89	1.99	1.94	2.24	1.85	2.01	0.0264	2.17
HCI-002, days in culture: 155	3.33	3.32	3.3	3.82	2.76	2.89	0.0206	3.05
HCI-002, days in culture: 168	2.98	2.48	2.66	2.27	2.64	2.56	0.0148	3.57
HCI-011.E2, days in culture: 74	2.21	1.44	1.16	0.949	0.784	0.995	0.0116	2.1
HCI-016, days in culture: 305	1.79	1.77	1.74	4.51	1.66	1.4	0.0174	3.16
HCI-016, days in culture: 327	0.432	0.896	2.06	1.99	0.951	1.2	0.023	0.782
HCI-016, days in culture: 341	1.45	1.24	1.81	1.73	1.34	1.81	0.00758	1.9
HCI-016, days in culture: 397	1.84	1.69	1.26	1.35	1.52	1.39	0.0166	1.94
HCI-024, days in culture: 202	1.07	1.14	0.789	1.11	0.752	1.36	0.00983	1.53
HCI-024, days in culture: 231	1.39	1.11	1.27	0.84	0.989	0.927	0.00464	1.06
HCI-024, days in culture: 254	1.73	0.635	1.21	0.879	0.958	1.05	0.00976	3.42

CTG-3D luminescence at 96 h
Details	12.5 pM	0.00025 µM	0.005 µM	0.1 µM	1 µM	10 µM	100 µM	625 fM
HCI-003.E2	1.08	1.04	0.947	0.798	1.03	0.994	0.0195	1.32
HCI-005.E2	1.21	1.28	1.46	1.72	1.73	1.49	0.0167	1.52
HCI-011.E2	0.71	0.7694	0.724	0.909	0.688	1.05	0.0136	1.05
